Measurements: patent US20230075765A1, “PYRROLO[2,3-D]PYRIMIDINE DERIVATIVE TARGETING EGFR MUTATION, AS WELL AS THE PREPARATIVE METHOD AND THE USE THEREOF” (WEST CHINA HOSPITAL, SICHUAN UNIVERSITY, priority 2020, published 2023)

Experiments:
Type in all cases: cell-based, human
HCC827 cells [1] = assay: Cell cycle, PI staining, flow cytometry; settings: for G2/M phase (%): 18 h (control 24.99); for S phase (%): 18 h (control 33.66); for G0/G1 phase (%): 18 h (control 41.35)
Method: (§1) A variety of different cells in the logarithmic growth phase were inoculated evenly in a 6-well plate at a concentration of 1×10^6 cells/well, 2 ml for each well, and then incubated overnight. Then, different compounds were added, and each compound was set different concentrations. After 18 h, the cells were collected, resuspended in PBS, and centrifuged to remove the supernatant, to which was then added 0.5 ml of pre-cooled 75% absolute ethanol dropwise, followed by vortexing to mix the cells and standing overnight at 4° C. The solution was centrifuged at 1000 rpm/min for 4 min, and the supernatant was discarded. Propidium iodide staining solution was prepared by using 5.6 ml staining buffer, 210 μl propidium iodide staining solution (25×), and 56 μl RNaseA (2.5 mg/ml). 0.4 ml of propidium iodide staining solution was added to each tube to resuspend the cells, and then incubated for 30 min at room temperature in the dark. The cell suspension was gently pipetted to mix, filtered into a flow tube, and stored in the dark at 4° C. The cells were detected on the flow cytometer within 1 h.

H1975 cells [2] = assay: Cell cycle, PI staining, flow cytometry; settings: for G2/M phase (%): 18 h (control 14.52); for S phase (%): 18 h (control 30.25); for G0/G1 phase (%): 18 h (control 55.23)
Method: as §1

HCC827 cells [3] = assay: Apoptosis, Annexin V-FITC/PI double staining, flow cytometry; settings: for Total apoptosis rate (%): 18 h (control 10.8)
Method: (§2) Apoptosis was detected by Annexin V-FITC/PI double staining method. A variety of different cells in the logarithmic growth phase were inoculated evenly in a 6-well plate at a concentration of 1×10^6 cells/well, 2 ml for each well, and then incubated overnight. Then, different compounds were added, and each compound was set different concentrations. After 18 h, the cells were collected with 0.25% trypsin without EDTA and washed twice with PBS solution. Then, the cells were stained by the apoptosis detection kit according to the instructions, and analyzed by flow cytometry.
(§3) In the experiment, human lung cancer cells HCC827 cells and H1975 cells were selected as the detection system. The control group was a blank control (DMSO). The test concentrations of the compounds were 0.5 μM and 5 μM. After treatment with the compounds for 18 h, the flow cytometry was used for detection. In the apoptosis result graph, the cells in quadrant E1 are necrotic cells, the cells in quadrant E2 are late apoptotic cells, the cells in quadrant E3 area represent live cells, and the cells in quadrant E4 are early apoptotic cells.

H1975 cells [4] = assay: as above; settings: for Total apoptosis rate (%): 18 h (control 9.2)
Method: as §2, §3

EGFR-Tyr992 = assay: Western blot, inhibition of EGFR phosphorylation; settings: H1975 cells
Method: (§4) (1) Various cell lines in the logarithmic growth phase were evenly inoculated in a 6-well plate at a concentration of 3×10^6 cells/well, respectively, and cultured for 24 h;
(§5) (2) The culture supernatant was removed, and then the cells were washed twice with PBS, and treated with serum-free medium for 1 hour;
(§6) (3) The culture supernatant was removed, and each compound at different concentrations was added, then the cells were treated for 2 h;
(§7) (4) The supernatant was removed, and the cells were washed twice with pre-cooled PBS, then the supernatant was discarded;
(§8) (5) 100 μl of cell lysate was added to each well, and cells were lysed on ice for 10 min. The cells were scraped with a cell scraper. The cell lysate was transferred to a pre-cooled 1.5 ml EP tube, sonicated, and centrifuged under 12000 rpm at 4° C. for 10 min. The supernatant was carefully aspirated and stored at −20° C.
(§9) (6) To the aliquoted total cell protein, was added 5 μl of 5× loading buffer, and the protein was denatured in a water bath at 100° C. for 10 min, then the sample was centrifugated and loaded;
(1) The successfully transferred membrane was placed in the 1× blocking solution prepared, and kept in the blocking solution at room temperature for about 1 h; […]

Akt = assay: Western blot, inhibition of Akt phosphorylation
Method: as §4, §5, §6, §7, §8, §9
(§10) (1) The successfully transferred membrane was placed in the 1× blocking solution prepared, and kept in the blocking solution at room temperature for about 1 h;
(§11) (2) EGFR protein and its downstream proteins were diluted with 1× primary antibody diluent, and incubated overnight at 4° C., using […] antibody as an internal reference;
(§12) (3) The membrane was washed 3 times with 1×TBST, 5 min for each time, and then washed with 1× secondary antibody dilution, followed by incubation for 1 h at room temperature. Finally, the membrane was washed 3 times with 1×TBST, 15 min for each time.
(§13) (2) The mixed ECL reagent was added to PVDF membrane (1 ml/10 cm^2), and subjected to chemiluminescence to obtain a band;
(§14) Western Blot method was used to analyze the influence of each compound on the expression of pathway proteins.

ERK1/2 = assay: Western blot, inhibition of ERK1/2 phosphorylation
Method: as §4, §5, §6, §7, §8, §9, §10, §11, §12, §13, §14

SMILES	ratio of cells in the G0/G1 phase compared with the control group (in words) (HCC827 cells [1])	G2/M phase (%) (HCC827 cells [1]; 0.5 μM)	S phase (%) (HCC827 cells [1]; 0.5 μM)	G0/G1 phase (%) (HCC827 cells [1]; 0.5 μM)	G2/M phase (%) (HCC827 cells [1]; 5 μM)	S phase (%) (HCC827 cells [1]; 5 μM)	G0/G1 phase (%) (HCC827 cells [1]; 5 μM)	ratio of cells in the G0/G1 phase compared with the control group (in words) (H1975 cells [2])	G2/M phase (%) (H1975 cells [2]; 0.5 μM)	S phase (%) (H1975 cells [2]; 0.5 μM)	G0/G1 phase (%) (H1975 cells [2]; 0.5 μM)	G2/M phase (%) (H1975 cells [2]; 5 μM)	S phase (%) (H1975 cells [2]; 5 μM)	G0/G1 phase (%) (H1975 cells [2]; 5 μM)	apoptosis-inducing effect (in words) (HCC827 cells [3])	Total apoptosis rate (%) (HCC827 cells [3]; 0.5 μM)	Total apoptosis rate (%) (HCC827 cells [3]; 5 μM)	apoptosis-inducing effect (in words) (H1975 cells [4])	Total apoptosis rate (%) (H1975 cells [4]; 0.5 μM)	Total apoptosis rate (%) (H1975 cells [4]; 5 μM)	other results
C=CC(=O)Nc1cccc(Oc2nc(Nc3ccc(N4CCN(C)CC4)c([N+](=O)[O-])c3)nc3[nH]ccc23)c1 [Compound 5]	significantly higher	9.72	16.99	73.29	14.12	4.36	81.52	significantly higher	9.17	4.64	86.20	11.64	14.04	74.33	certain apoptosis-inducing effects	30.3	23.8	certain apoptosis-inducing effects	12.7	13.5	inhibition of phosphorylation of EGFR-Tyr992 (EGFR-Tyr992): effectively inhibited; inhibition of phosphorylation of Akt (Akt; H1975 cells): inhibited; inhibition of phosphorylation of Akt (Akt; wild-type EGFR cells): much weaker inhibitory effects; inhibition of phosphorylation of ERK1/2 (ERK1/2; H1975 cells): inhibited; inhibition of phosphorylation of ERK1/2 (ERK1/2; wild-type EGFR cells): much weaker inhibitory effects
C=CC(=O)Nc1cccc(Oc2nc(Nc3ccc(N4CCN(C)CC4)c(N)c3)nc3[nH]ccc23)c1 [Compound 6]	significantly higher	10.27	11.62	78.11	7.95	13.93	78.12	significantly higher	10.49	5.28	84.24	13.18	10.59	76.23	certain apoptosis-inducing effects	28.7	23.6	certain apoptosis-inducing effects	16.4	16.1	inhibition of phosphorylation of EGFR-Tyr992 (EGFR-Tyr992): effectively inhibited; inhibition of phosphorylation of Akt (Akt; H1975 cells): inhibited; inhibition of phosphorylation of Akt (Akt; wild-type EGFR cells): much weaker inhibitory effects; inhibition of phosphorylation of ERK1/2 (ERK1/2; H1975 cells): inhibited; inhibition of phosphorylation of ERK1/2 (ERK1/2; wild-type EGFR cells): much weaker inhibitory effects
